Active and inactive are the calls of the source.
Key:
[1] = inhibitors of firefly luciferase expression or activity, dose response, H4 neuroglioma cells, luminescence (AID 1990); format: functional, cell-based
[2] = molecular target: T1, Luciferin 4-monooxygenase (Photinus pyralis, UniProt P08659); test: Counter Screen for Luciferase-based Assay Positives. [Related pubchem assays: 620, 618, 411 ]
[3] = Luminescence Cell-Based Dose Response HTS to Identify Inhibitors of 5'UTR Stem-Loop Driven Prion Protein mRNA Translation in H4 Neuroglioblastoma Cells. [Related pubchem assays: 1827 (Project Summary), 1813 (Primary HTS)]; format: functional
[4] = inhibitors of SNCA 5'UTR-driven reporter translation, confirmation, H4 neuroglioma cells, luminescence (AID 1988); format: functional, cell-based
[5] = molecular target: Large T antigen (Simian virus 40, UniProt P03070); format: functional, Betapolyomavirus macacae;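 note: Confirmatory-stage PubChem screen for compounds that inhibit SV40 T antigen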
[6] = system: HT-1080; test: cytotoxicity in HT1080 fibrosarcoma cells, cell-based, fluorescence readout (AID 620); format: functional; conditions: Homo sapiens
[7] = molecular target: FAD-linked sulfhydryl oxidase ALR (Homo sapiens, UniProt P55789); test: inhibitors of human ALR sulfhydryl oxidase, dose response, biochemical, H2O2 detection, luminescence, cherry-pick (AID 493248)
[8] = molecular target: T2, Microphthalmia-associated transcription factor (Homo sapiens, UniProt O75030); test: TRPM1 promoter luciferase signal decrease, dose response, MITF inhibitor project, cell-based, SK-MEL-5, cherry-picked, set 3 (AID 493073); format: functional
T2 sequence (O75030 whole entry): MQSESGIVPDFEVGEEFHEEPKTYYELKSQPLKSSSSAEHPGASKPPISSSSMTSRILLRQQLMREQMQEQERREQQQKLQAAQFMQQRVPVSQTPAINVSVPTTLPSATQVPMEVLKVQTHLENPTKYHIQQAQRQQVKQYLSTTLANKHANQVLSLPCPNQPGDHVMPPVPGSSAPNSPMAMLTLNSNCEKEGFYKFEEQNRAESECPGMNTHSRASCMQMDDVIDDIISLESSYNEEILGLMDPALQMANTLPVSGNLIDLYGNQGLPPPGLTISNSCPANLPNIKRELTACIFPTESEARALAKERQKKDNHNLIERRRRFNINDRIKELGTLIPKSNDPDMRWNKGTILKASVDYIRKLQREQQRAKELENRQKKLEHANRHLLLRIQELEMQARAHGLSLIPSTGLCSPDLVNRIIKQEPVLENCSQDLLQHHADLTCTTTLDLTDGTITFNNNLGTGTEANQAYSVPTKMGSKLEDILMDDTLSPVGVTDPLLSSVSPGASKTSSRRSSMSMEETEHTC

[9] = molecular target: T3, Ubiquitin-conjugating enzyme E2 N (Homo sapiens, UniProt P61088); format: functional;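 note: Dose-response confirmation in a TR-FRET assay detecting UBC13-driven polyubiquitin chain formation, inhibition measured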
T3 sequence (P61088 whole entry): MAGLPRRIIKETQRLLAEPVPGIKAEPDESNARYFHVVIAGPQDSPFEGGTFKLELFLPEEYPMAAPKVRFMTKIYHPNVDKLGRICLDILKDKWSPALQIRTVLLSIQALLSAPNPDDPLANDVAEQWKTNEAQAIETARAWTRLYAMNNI

[10] = molecular target: Voltage-dependent T-type calcium channel subunit alpha-1H (Homo sapiens, UniProt O95180); format: functional;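 note: channel activity triggered by adding a high calcium stimulation buffer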
[11] = molecular target: T1, Luciferin 4-monooxygenase; test: firefly luciferase enzyme inhibitors, dose response, biochemical, luminescence (AID 1891)
[12] = Luminescence Cell-Based Dose Confirmation HTS to Identify Inhibitors of Platelet Dense Granule Release. [Related pubchem assays: 1663 (Primary HTS), 1678 (Summary of Project)]; format: functional
[13] = molecular target: DNA dC->dU-editing enzyme APOBEC-3A (Homo sapiens, UniProt P31941); test: Dose Response confirmation of small molecule APOBEC3A DNA Deaminase Inhibitors via a fluorescence-based single-stranded DNA deaminase assay. [Related pubchem assays (depositor defined):AID493011, AID493024]; format: functional
[14] = molecular target: T4, DNA dC->dU-editing enzyme APOBEC-3G (Homo sapiens, UniProt Q9HC16); format: functional
[15] = Luminescence Cell-Based Dose Response to Identify Activators of 5'UTR Stem-Loop Driven Prion Protein mRNA Translation in H4-C Neuroglioblastoma Cells. [Related pubchem assays: 1829 (Project Summary), 1814 (Primary HTS)]; format: functional
[16] = Luminescence Cell-Based Dose Confirmation HTS to Identify Activators of 5'UTR Stem-Loop Driven Alpha-Synuclein mRNA Translation in H4 Neuroglioblastoma Cells. [Related pubchem assays: 1829 (Project Summary), 1814 (Primary HTS)]; format: functional
[17] = Luminescence Cell-Based Dose Response HTS to Identify Activators of Luciferase Translation or Activity in H4 […] Cells. [Related pubchem assays: 1829 (Project Summary), 1814 (Primary HTS)]; format: functional
[18] = system: H4; test: Luminescence Cell-Based Dose Response HTS to Identify Activators of 5'UTR Stem-Loop Driven Prion Protein mRNA Translation in H4 Neuroglioblastoma Cells. [Related pubchem assays: 1829 (Project Summary), 1814 (Primary HTS)]; format: functional; conditions: Homo sapiens
[19] = Luminescence Cell-Based Dose Response to Identify Activators of Luciferase Translation or Activity in H4-C Neuroglioblastoma Cells. [Related pubchem assays: 1829 (Project Summary), 1814 (Primary HTS)]; format: functional
[20] = Luminescence Cell-Based Dose Confirmation to Identify Activators of 5'UTR Stem-Loop Driven Alpha-Synuclein mRNA Translation in H4 Neuroglioblastoma Cells. [Related pubchem assays: 1829 (Project Summary), 1814 (Primary HTS)]; format: functional
[21] = molecular target: Photoreceptor-specific nuclear receptor (Homo sapiens, UniProt Q9Y5X4); format: functional;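 note: potency for compounds that break the NR2E3 corepressor complex and count as activators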
[22] = molecular target: Peroxisome proliferator-activated receptor gamma/Nuclear receptor corepressor 2 (Homo sapiens, UniProt P37231+Q9Y618); format: functional
[23] = system: HeLa; test: HeLa cell cytotoxicity, dose response, cytotoxicity control for MITF activator project, CellTiter-Glo luminescence, cherry-pick samples (AID 540259); format: functional, cell-based; conditions: Homo sapiens
[24] = inhibitors of intracellular T. cruzi replication, confirmation, NIH3T3 host cells, beta-gal luminescence (AID 2044); format: functional, cell-based;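 note: intracellular parasites grown in NIH/3T3 mouse fibroblasts as host cells; luminescent beta-galactosidase reporter signal from transgenic T. cruzi replicating inside host cells; inhibitors lower the luminescence signal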
[25] = cytotoxicity toward NIH3T3 fibroblasts, dose response, counter-screen, cell-based, ATP luminescence, mouse fibroblasts (AID 2010); format: functional;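 note: cells exposed to compound for about 90 hours before reading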
[26] = Luminescence Cell-Based Dose Retest to Confirm Inhibitors of Cancer Stem Cells. [Related pubchem assays (depositor defined):AID2717, AID2721]; format: functional; conditions: Homo sapiens
[27] = system: HEK293; test: inhibitors of LMP1-driven NF-kB reporter, dose response, cell-based, HEK293, luciferase, cherry-pick (AID 588343); format: functional; conditions: Homo sapiens
[28] = molecular target: T4, DNA dC->dU-editing enzyme APOBEC-3G; test: Dose Response confirmation of small molecule APOBEC3G DNA Deaminase Inhibitors via a fluorescence-based single-stranded DNA deaminase assay. [Related pubchem assays (depositor defined):AID493012, AID493028]; format: functional
[29] = molecular target: T5, Protein skinhead-1 (Caenorhabditis elegans, UniProt P34707); format: functional
T5 sequence (P34707 whole entry): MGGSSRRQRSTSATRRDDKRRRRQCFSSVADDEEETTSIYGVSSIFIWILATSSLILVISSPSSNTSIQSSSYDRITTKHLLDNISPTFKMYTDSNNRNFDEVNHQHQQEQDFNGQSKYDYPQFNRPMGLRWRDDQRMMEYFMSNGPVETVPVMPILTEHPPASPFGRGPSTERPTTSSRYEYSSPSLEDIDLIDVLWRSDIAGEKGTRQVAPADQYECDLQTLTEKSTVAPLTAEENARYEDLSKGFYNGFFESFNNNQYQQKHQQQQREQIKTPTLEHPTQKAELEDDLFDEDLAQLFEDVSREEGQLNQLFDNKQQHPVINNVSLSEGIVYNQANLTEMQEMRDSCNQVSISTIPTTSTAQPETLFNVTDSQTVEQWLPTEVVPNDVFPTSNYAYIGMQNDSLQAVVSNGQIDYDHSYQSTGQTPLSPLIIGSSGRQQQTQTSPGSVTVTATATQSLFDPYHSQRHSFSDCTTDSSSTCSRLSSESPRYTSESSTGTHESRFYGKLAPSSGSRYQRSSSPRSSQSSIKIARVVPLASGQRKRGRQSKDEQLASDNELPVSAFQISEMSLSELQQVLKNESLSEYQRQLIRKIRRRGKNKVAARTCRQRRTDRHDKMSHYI

[30] = molecular target: T6, Cytochrome P450 1A2 (Homo sapiens, UniProt P05177);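 note: PubChem cytochrome P450 panel assay, CYP1A2 panel member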
T6 sequence (P05177 whole entry): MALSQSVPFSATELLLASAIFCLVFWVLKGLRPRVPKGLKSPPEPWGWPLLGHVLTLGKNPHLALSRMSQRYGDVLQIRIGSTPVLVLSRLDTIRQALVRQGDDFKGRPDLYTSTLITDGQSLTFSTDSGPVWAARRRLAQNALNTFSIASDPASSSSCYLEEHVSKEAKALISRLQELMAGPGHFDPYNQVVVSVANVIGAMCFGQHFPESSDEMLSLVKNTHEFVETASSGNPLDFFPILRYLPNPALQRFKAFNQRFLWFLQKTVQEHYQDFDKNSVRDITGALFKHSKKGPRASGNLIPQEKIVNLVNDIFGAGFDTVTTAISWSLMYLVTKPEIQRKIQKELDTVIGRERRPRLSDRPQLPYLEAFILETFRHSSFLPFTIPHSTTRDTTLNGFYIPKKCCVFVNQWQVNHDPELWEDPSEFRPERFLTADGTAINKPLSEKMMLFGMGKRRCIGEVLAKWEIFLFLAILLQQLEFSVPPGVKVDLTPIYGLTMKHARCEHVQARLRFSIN

[31] = molecular target: Cytochrome P450 2C9 (Homo sapiens, UniProt P11712)

T1 sequence (P08659 whole entry): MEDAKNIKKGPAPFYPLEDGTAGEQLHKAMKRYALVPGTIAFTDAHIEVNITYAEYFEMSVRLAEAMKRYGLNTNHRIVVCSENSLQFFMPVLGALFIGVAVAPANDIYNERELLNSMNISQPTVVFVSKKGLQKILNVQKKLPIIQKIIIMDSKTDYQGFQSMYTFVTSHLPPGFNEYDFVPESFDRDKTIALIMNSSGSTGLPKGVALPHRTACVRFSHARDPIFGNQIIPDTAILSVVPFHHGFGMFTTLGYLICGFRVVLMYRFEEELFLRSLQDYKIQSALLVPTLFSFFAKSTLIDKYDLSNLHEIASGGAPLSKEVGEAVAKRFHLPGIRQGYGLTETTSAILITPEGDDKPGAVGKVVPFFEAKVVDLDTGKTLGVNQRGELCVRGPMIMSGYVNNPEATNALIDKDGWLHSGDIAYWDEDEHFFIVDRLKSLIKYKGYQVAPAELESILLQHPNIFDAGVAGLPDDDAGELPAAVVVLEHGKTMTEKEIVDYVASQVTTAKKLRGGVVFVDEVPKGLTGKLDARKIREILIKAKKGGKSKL
T4 sequence (Q9HC16 whole entry): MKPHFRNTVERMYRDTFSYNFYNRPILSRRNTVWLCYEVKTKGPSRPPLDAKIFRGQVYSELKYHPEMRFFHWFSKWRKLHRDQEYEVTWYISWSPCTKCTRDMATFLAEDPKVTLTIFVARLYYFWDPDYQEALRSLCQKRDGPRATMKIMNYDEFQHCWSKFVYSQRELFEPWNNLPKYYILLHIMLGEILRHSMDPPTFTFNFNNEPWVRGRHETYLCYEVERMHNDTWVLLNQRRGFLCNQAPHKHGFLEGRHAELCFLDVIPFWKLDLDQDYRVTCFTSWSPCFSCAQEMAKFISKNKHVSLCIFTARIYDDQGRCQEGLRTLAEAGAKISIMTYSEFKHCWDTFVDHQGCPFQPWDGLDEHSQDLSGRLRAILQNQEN
Chain of Voltage-dependent T-type calcium channel subunit alpha-1H (O95180 whole entry): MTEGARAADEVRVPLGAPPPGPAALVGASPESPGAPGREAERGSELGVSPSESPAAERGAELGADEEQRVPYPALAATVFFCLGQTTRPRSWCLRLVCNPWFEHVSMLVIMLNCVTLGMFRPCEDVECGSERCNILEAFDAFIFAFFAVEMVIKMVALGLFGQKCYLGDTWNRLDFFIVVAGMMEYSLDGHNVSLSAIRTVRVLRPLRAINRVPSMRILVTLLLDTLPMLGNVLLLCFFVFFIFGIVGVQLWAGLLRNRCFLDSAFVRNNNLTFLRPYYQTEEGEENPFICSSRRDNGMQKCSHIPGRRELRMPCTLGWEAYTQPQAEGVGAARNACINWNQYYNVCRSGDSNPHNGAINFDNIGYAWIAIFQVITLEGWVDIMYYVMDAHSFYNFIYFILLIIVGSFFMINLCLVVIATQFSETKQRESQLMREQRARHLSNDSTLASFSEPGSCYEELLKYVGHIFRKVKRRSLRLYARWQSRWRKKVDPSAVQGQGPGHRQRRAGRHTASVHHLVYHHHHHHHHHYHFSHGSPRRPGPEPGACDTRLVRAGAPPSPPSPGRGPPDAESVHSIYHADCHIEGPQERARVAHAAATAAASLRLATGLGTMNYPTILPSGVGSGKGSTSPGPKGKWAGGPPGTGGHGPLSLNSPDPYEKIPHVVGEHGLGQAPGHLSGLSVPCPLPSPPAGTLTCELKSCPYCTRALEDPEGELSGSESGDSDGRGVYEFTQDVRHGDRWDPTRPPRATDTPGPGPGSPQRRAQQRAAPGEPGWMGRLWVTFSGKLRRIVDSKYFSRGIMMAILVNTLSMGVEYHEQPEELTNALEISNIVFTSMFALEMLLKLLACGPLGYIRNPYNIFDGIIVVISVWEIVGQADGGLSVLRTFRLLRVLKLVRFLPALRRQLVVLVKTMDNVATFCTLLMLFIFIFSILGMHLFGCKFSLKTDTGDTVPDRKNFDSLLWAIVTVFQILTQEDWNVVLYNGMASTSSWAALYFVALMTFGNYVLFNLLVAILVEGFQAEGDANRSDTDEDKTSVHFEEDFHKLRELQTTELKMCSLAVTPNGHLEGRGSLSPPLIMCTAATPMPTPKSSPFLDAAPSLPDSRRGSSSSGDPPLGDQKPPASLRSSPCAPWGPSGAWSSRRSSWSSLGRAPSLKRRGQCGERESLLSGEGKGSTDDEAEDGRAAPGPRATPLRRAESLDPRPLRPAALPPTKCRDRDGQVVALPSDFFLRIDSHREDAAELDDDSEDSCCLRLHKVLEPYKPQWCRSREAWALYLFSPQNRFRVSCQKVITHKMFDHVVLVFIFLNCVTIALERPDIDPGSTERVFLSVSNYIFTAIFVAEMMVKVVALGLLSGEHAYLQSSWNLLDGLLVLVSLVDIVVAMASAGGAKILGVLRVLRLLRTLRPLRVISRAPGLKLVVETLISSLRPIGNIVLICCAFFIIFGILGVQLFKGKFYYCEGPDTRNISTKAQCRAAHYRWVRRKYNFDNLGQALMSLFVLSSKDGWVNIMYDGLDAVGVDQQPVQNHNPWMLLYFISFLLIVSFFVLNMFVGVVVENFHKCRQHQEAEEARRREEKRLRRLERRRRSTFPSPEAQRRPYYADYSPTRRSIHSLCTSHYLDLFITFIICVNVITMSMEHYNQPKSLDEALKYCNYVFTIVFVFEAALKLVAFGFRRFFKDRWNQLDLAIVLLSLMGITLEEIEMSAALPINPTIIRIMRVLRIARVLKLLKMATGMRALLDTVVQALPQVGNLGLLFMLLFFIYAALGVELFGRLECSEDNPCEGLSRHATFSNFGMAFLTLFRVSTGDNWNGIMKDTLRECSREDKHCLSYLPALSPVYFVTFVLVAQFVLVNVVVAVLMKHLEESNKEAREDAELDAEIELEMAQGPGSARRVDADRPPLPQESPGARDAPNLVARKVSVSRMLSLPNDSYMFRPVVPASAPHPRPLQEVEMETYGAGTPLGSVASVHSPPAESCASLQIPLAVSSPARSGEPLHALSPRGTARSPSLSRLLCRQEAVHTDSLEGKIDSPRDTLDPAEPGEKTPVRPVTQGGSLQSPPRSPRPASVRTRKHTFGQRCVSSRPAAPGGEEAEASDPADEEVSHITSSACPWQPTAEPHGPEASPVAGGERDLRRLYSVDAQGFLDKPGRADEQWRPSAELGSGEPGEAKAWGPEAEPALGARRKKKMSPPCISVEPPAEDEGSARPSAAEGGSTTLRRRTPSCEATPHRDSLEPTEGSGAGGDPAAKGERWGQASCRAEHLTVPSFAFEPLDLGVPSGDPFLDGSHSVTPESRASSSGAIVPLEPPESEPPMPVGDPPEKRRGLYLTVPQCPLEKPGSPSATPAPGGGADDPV
Chain of Photoreceptor-specific nuclear receptor (Q9Y5X4 whole entry): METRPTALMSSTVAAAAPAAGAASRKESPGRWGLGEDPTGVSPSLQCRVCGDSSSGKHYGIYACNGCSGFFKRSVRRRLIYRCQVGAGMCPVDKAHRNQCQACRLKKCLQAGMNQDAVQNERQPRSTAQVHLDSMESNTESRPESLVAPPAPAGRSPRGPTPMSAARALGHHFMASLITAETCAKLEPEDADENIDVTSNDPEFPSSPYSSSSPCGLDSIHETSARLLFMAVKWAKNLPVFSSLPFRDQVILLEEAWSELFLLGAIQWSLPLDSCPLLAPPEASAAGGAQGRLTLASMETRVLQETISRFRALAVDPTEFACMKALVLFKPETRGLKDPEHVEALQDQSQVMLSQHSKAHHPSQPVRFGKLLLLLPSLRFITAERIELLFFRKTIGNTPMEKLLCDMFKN
Chain of DNA dC->dU-editing enzyme APOBEC-3A (P31941 whole entry): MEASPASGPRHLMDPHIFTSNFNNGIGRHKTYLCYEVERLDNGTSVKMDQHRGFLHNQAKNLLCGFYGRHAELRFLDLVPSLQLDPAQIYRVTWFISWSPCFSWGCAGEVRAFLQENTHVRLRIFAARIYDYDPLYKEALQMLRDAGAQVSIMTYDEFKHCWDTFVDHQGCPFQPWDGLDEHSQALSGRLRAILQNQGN
Chain of Large T antigen (P03070 whole entry): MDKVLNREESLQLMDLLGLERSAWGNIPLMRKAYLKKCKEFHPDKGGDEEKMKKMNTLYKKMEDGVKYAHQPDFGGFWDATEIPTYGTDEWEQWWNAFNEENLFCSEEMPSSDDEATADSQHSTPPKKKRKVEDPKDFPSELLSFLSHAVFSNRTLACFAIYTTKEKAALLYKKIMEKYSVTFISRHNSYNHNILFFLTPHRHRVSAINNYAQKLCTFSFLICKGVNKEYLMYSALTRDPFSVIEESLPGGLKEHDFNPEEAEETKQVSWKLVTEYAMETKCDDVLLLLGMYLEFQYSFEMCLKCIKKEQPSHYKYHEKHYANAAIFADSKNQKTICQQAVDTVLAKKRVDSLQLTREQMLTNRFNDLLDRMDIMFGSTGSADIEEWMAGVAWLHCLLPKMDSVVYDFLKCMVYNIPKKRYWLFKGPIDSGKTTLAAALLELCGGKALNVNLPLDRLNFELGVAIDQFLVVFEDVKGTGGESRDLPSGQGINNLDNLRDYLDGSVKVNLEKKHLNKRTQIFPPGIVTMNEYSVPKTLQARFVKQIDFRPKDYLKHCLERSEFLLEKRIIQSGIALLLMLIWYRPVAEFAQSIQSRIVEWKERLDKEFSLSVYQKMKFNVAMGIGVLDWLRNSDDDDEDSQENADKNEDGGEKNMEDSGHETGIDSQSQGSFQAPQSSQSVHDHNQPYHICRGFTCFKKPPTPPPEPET
Chain of FAD-linked sulfhydryl oxidase ALR (P55789 whole entry): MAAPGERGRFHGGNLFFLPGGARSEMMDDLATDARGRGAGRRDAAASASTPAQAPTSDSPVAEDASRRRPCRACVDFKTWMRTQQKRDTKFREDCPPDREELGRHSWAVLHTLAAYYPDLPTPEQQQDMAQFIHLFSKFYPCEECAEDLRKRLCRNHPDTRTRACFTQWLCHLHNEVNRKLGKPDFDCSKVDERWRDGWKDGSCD

Nc1ccc(-c2nc3c(Cl)cc(N)cc3[nH]2)cc1
EC50 [1]: 9.81 µM (active) | EC50 [2]: < 0.2 µM (active) | EC50 [3]: 0.21 µM (active) | EC50 [4]: 7.08 µM (active) | IC50 [5]: 9.32 µM (active) | EC50 [6]: > 50 µM (not active) | AC50 [7]: 0.556 µM (active) | AC50 [8]: 3.76 µM (active)

CCOCCCNC(=O)c1cn(CC(C)C)c(=O)c2c1c1ccccc1n2C
IC50 [9]: > 20 µM (inactive)

CC(Sc1nnc(-c2cccs2)n1Cc1ccccc1)C(=O)NCc1ccc2c(c1)OCO2 (centres undefined)
EC50 [10]: 9.04 µM (active)

COc1ccc(NC(=O)c2cc3ccccn3n2)cc1
EC50 [2]: 3.55 µM (active) | EC50 [11]: 31.4 µM (active) | EC50 [12]: > 112 µM (not active) | EC50 [6]: 29.9 µM (active)

CCSCCNC(=O)c1cc(-n2cnnc2)ccc1Cl
IC50 [13]: 4.2 µM (active) | IC50 [14]: 4.09 µM (active)

CC(C(=O)N1c2ccccc2CCc2ccccc21)n1nnc(-c2ccc(N(C)C)cc2)n1 (centres undefined)
EC50 [10]: 4.2 µM (active)

Cc1ccc(-n2c(C)csc2=N)cc1
EC50 [15]: 0.373 µM (active) | EC50 [16]: < 0.1 µM (active) | EC50 [17]: 0.102 µM (active) | EC50 [18]: 0.547 µM (active) | EC50 [19]: 8.21 µM (active) | EC50 [20]: 0.421 µM (active)

COC(=O)CCCC[C@H]1SC[C@H]2NC(=O)N[C@]21O
IC50 [21]: 0.389 µM (active) | IC50 [22]: 1.92 µM (active)

Cc1cc2cc(OCc3ccccc3)ccc2n1C
EC50 [15]: 0.383 µM (active) | EC50 [18]: < 0.1 µM (active) | EC50 [19]: 0.393 µM (active) | EC50 [20]: 0.217 µM (active) | AC50 [23]: 97.8 µM (active)

CCN1CCN(Cc2ccc(NC(=O)c3ccc(C)c(NC(=O)c4cc(-c5ccc(Br)cc5)[nH]n4)c3)cc2C(F)(F)F)CC1
EC50 [24]: 1.53 µM (active) | EC50 [25]: > 30 µM (not active) | AC50 [26]: 3.4 µM (active) | IC50 [9]: > 20 µM (inactive) | AC50 [27]: 0.741 µM (active)

Cc1noc(C)c1CSc1nc2cc(S(=O)(=O)N3CCOCC3)ccc2o1
IC50 [28]: 50.7 µM (active)

Cc1ccc(C)c(N2CCN(C(c3ccc(N(C)C)cc3)c3nnnn3C(C)(C)C)CC2)c1 (centres undefined)
EC50 [10]: 4.2 µM (active) | IC50 [29]: > 100 µM (inactive)

O=C(COc1ccc(CO)cc1Cl)Nc1ccc(F)cc1
EC50 [2]: > 100 µM (not active) | EC50 [6]: > 50 µM (not active)

CCC(Sc1nc(O)c(C#N)c(-c2ccccc2)n1)C(=O)Nc1cc(C)on1 (centres undefined)
IC50 [21]: > 39.8 µM (not active) | IC50 [22]: 4.41 µM (active)

COc1ccc(CCNC(=O)C2CCCN(Cc3nc(-c4cccc(Cl)c4)oc3C)C2)cc1OC (centres undefined)
EC50 [24]: 0.145 µM (active) | EC50 [25]: > 60 µM (not active) | EC50 [10]: 5.34 µM (active) | AC50 [30]: 15.8 µM (inconclusive) | AC50 [31]: 6.31 µM (inconclusive)

COc1ccc(CSCC(=O)N/N=C/c2ccc(OCC(=O)N3CCCCC3)cc2)cc1
IC50 [13]: 5.86 µM (active) | IC50 [14]: 6.1 µM (active)
